Results reported in PubChem BioAssay (NCI).
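The compound was tested at five concentrations on cells cultured in 96-well plates, with a 48-hour exposure period. Definition used: TGI = concentration required for complete inhibition of growth.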

Experiments:
Assay in all cases: NCI tumour cell line growth inhibition, 48 h
[1] = tested on: MDA-MB-231 breast
[2] = tested on: HS 578T breast
[3] = tested on: COLO 205 colon
[4] = tested on: SF-295 CNS
[5] = tested on: MALME-3M melanoma
[6] = tested on: MDA-MB-435
[7] = tested on: NCI/ADR-RES ovarian
[8] = tested on: BT-549 breast
[9] = tested on: OVCAR-3 ovarian
[10] = tested on: TK-10 renal
[11] = tested on: SK-OV-3 ovarian
[12] = tested on: A549 NSCLC
[13] = tested on: KM12 colon
[14] = tested on: NCI-H522 lung
[15] = tested on: HCT-116 colon
[16] = tested on: MCF7 breast
[17] = tested on: ACHN renal
[18] = tested on: SK-MEL-5 melanoma
[19] = tested on: SK-MEL-28 melanoma
[20] = tested on: SR leukemia
[21] = tested on: SN12C renal
[22] = tested on: NCI-H226 lung
[23] = tested on: 786-0 renal
[24] = tested on: IGROV1 ovarian
[25] = tested on: RPMI-8226 leukemia
[26] = tested on: EKVX NSCLC
[27] = tested on: HT29 colon
[28] = tested on: SNB-19 CNS
[29] = tested on: A498 renal
[30] = tested on: SW-620 colon
[31] = tested on: OVCAR-8 ovarian
[32] = tested on: CAKI-1 renal
[33] = tested on: HL-60(TB) leukemia
[34] = tested on: UO-31 renal
[35] = tested on: HOP-92 NSCLC
[36] = tested on: DU-145 prostate
[37] = tested on: UACC-62 melanoma
[38] = tested on: HCT-15 colon
[39] = tested on: MDA-N
[40] = tested on: CCRF-CEM leukemia
[41] = tested on: T-47D breast
[42] = tested on: HCC-2998 colon
[43] = tested on: NCI-H23 lung
[44] = tested on: UACC-257 melanoma
[45] = tested on: MOLT-4 leukemia
[46] = tested on: LOX IMVI melanoma
[47] = tested on: M14 melanoma
[48] = tested on: HOP-62 NSCLC
[49] = tested on: SF-539 CNS
[50] = tested on: PC-3 prostate
[51] = tested on: K-562 leukemia
[52] = tested on: NCI-H460 lung
[53] = tested on: SF-268 CNS
[54] = tested on: U251 CNS
[55] = tested on: OVCAR-4 ovarian
[56] = tested on: SNB-75 CNS
[57] = tested on: OVCAR-5 ovarian
[58] = tested on: SK-MEL-2 melanoma
[59] = tested on: RXF 393 renal

CCOC(=O)Cc1nc2c(N)ncnc2n1C1OC(COC(C)=O)C(OC(C)=O)C1OC(C)=O (stereo not drawn)
TGI [1]: > 100 µM
TGI [2]: > 100 µM
TGI [3]: > 100 µM
TGI [4]: > 100 µM
TGI [5]: > 100 µM
TGI [6]: > 100 µM
TGI [7]: > 100 µM
TGI [8]: > 100 µM
TGI [9]: > 100 µM
TGI [10]: > 100 µM
TGI [11]: > 100 µM
TGI [12]: > 100 µM
TGI [13]: > 100 µM
TGI [14]: > 100 µM
TGI [15]: > 100 µM
TGI [16]: > 100 µM
TGI [17]: > 100 µM
TGI [18]: > 100 µM
TGI [19]: > 100 µM
TGI [20]: > 100 µM
TGI [21]: > 100 µM
TGI [22]: > 100 µM
TGI [23]: > 100 µM
TGI [24]: > 100 µM
TGI [25]: > 100 µM
TGI [26]: > 100 µM
TGI [27]: > 100 µM
TGI [28]: > 100 µM
TGI [29]: > 100 µM
TGI [30]: > 100 µM
TGI [31]: > 100 µM
TGI [32]: > 100 µM
TGI [33]: > 100 µM
TGI [34]: > 100 µM
TGI [35]: > 100 µM
TGI [36]: > 100 µM
TGI [37]: > 100 µM
TGI [38]: > 100 µM
TGI [39]: > 100 µM
TGI [40]: > 100 µM
TGI [41]: > 100 µM
TGI [42]: > 100 µM
TGI [43]: > 100 µM
TGI [44]: > 100 µM
TGI [45]: > 100 µM
TGI [46]: > 100 µM
TGI [47]: > 100 µM
TGI [48]: > 100 µM
TGI [49]: > 100 µM
TGI [50]: > 100 µM
TGI [51]: > 100 µM
TGI [52]: > 100 µM
TGI [53]: > 100 µM
TGI [54]: > 100 µM

CCn1c(SCC(=O)NNC(=S)NC)nc2ccccc2c1=O
TGI [1]: > 100 µM
TGI [2]: > 100 µM
TGI [3]: > 100 µM
TGI [4]: > 100 µM
TGI [55]: > 100 µM
TGI [5]: > 100 µM
TGI [6]: > 100 µM
TGI [56]: > 100 µM
TGI [7]: > 100 µM
TGI [8]: > 100 µM
TGI [9]: > 100 µM
TGI [10]: > 100 µM
TGI [57]: > 100 µM
TGI [11]: > 100 µM
TGI [58]: > 100 µM
TGI [12]: > 100 µM
TGI [13]: > 100 µM
TGI [14]: > 100 µM
TGI [15]: > 100 µM
TGI [16]: > 100 µM
TGI [17]: > 100 µM
TGI [18]: > 100 µM
TGI [59]: > 100 µM
TGI [19]: > 100 µM
TGI [20]: > 100 µM
TGI [21]: > 100 µM
TGI [22]: > 100 µM
TGI [23]: > 100 µM
TGI [24]: > 100 µM
TGI [25]: > 100 µM
TGI [26]: > 100 µM
TGI [28]: > 100 µM
TGI [29]: > 100 µM
TGI [30]: > 100 µM
TGI [31]: > 100 µM
TGI [32]: 44.2 µM
TGI [33]: > 100 µM
TGI [34]: > 100 µM
TGI [36]: > 100 µM
TGI [37]: > 100 µM
TGI [38]: > 100 µM
TGI [39]: > 100 µM
TGI [40]: > 100 µM
TGI [41]: > 100 µM
TGI [42]: > 100 µM
TGI [43]: > 100 µM
TGI [44]: > 100 µM
TGI [45]: > 100 µM
TGI [46]: > 100 µM
TGI [47]: > 100 µM
TGI [48]: > 100 µM
TGI [49]: > 100 µM
TGI [50]: > 100 µM
TGI [51]: > 100 µM
TGI [52]: 45.7 µM
TGI [53]: > 100 µM
TGI [54]: > 100 µM

CN(C)C(=S)SCC(=O)Nc1ccccc1
TGI [1]: > 100 µM
TGI [2]: > 100 µM
TGI [3]: > 100 µM
TGI [4]: > 100 µM
TGI [55]: > 100 µM
TGI [5]: > 100 µM
TGI [6]: > 100 µM
TGI [56]: > 100 µM
TGI [7]: > 100 µM
TGI [8]: > 100 µM
TGI [9]: > 100 µM
TGI [57]: > 100 µM
TGI [11]: > 100 µM
TGI [58]: > 100 µM
TGI [12]: > 100 µM
TGI [13]: > 100 µM
TGI [14]: > 100 µM
TGI [15]: > 100 µM
TGI [16]: > 100 µM
TGI [17]: > 100 µM
TGI [18]: > 100 µM
TGI [59]: > 100 µM
TGI [19]: > 100 µM
TGI [20]: > 100 µM
TGI [21]: > 100 µM
TGI [22]: > 100 µM
TGI [23]: > 100 µM
TGI [24]: > 100 µM
TGI [25]: > 100 µM
TGI [26]: > 100 µM
TGI [27]: > 100 µM
TGI [29]: > 100 µM
TGI [30]: > 100 µM
TGI [31]: > 100 µM
TGI [32]: > 100 µM
TGI [33]: > 100 µM
TGI [34]: > 100 µM
TGI [35]: > 100 µM
TGI [36]: > 100 µM
TGI [37]: > 100 µM
TGI [38]: > 100 µM
TGI [39]: > 100 µM
TGI [40]: > 100 µM
TGI [41]: > 100 µM
TGI [42]: > 100 µM
TGI [43]: > 100 µM
TGI [44]: > 100 µM
TGI [45]: > 100 µM
TGI [46]: > 100 µM
TGI [47]: > 100 µM
TGI [48]: > 100 µM
TGI [51]: > 100 µM
TGI [52]: > 100 µM
TGI [53]: > 100 µM
TGI [54]: > 100 µM

CN(C)CCNC(=O)c1cccc2c1Oc1c(cccc1[N+](=O)[O-])O2
TGI [2]: 6.71 µM
TGI [3]: 4.28 µM
TGI [4]: 5.09 µM
TGI [55]: > 100 µM
TGI [5]: 3.88 µM
TGI [6]: 14.4 µM
TGI [56]: 3.96 µM
TGI [8]: 4.66 µM
TGI [9]: 13.1 µM
TGI [10]: 6.08 µM
TGI [57]: 8.14 µM
TGI [58]: 3.06 µM
TGI [12]: 3.42 µM
TGI [13]: 3.46 µM
TGI [14]: 3.22 µM
TGI [15]: 3.4 µM
TGI [16]: > 100 µM
TGI [18]: 3.24 µM
TGI [59]: 4.94 µM
TGI [19]: 7.87 µM
TGI [20]: 15.6 µM
TGI [21]: 3.72 µM
TGI [22]: 0.92 µM
TGI [23]: 3.98 µM
TGI [24]: 8.9 µM
TGI [25]: > 100 µM
TGI [26]: 14.3 µM
TGI [27]: 5.78 µM
TGI [29]: 4.78 µM
TGI [30]: 10.2 µM
TGI [31]: 16.5 µM
TGI [32]: 1.16 µM
TGI [33]: > 100 µM
TGI [36]: 5.37 µM
TGI [37]: 1.77 µM
TGI [38]: 3.89 µM
TGI [39]: 12.6 µM
TGI [40]: 16.4 µM
TGI [41]: 1.93 µM
TGI [42]: 2.62 µM
TGI [43]: 9.58 µM
TGI [44]: 6.34 µM
TGI [45]: 2.27 µM
TGI [46]: 10.5 µM
TGI [47]: 16.2 µM
TGI [48]: 2.48 µM
TGI [49]: 4.85 µM
TGI [50]: 12.5 µM
TGI [51]: 7.55 µM
TGI [52]: 2.66 µM
TGI [53]: 12.2 µM
TGI [54]: 10.4 µM
